From US20260294885A1, “TREATMENT OF INFLAMMATORY CONDITIONS COMPRISING IMU-856” (IMMUNIC AG, priority 2023, published 2026)
Entries after “also recorded” stand apart in the source; their conditions may differ.

How the values were obtained:
DSS-induced colitis = assay: Therapeutic DSS-induced colitis mouse model (Example 3); assay type: in vivo, male C57BL/6 mice; conditions: 1 mg/kg per oral gavage once daily for 5 days from disease onset
Experimental: For this model, which is an often-used in vivo model for IBD, male C57BL/6 mice were treated with 2.8% DSS in drinking water for 5 days. Treatment with either vehicle (PEG400), 60 mg/kg sulfasalazine (positive control) or 1 mg/kg IMU-856 was given at disease onset (day 4 after start of DSS treatment) per oral gavage once daily for 5 days. Diarrhea score (normal consistency; soft; pasty, unshaped, not sticking to anus; diarrhea, sticking to anus; diarrhea with macroscopic bleeding) was assessed daily.
At the end of the study, mice were sacrificed and the colon was collected. Colon histology score consisting of an architecture score (0-3) and an infiltration score (0-3) was assessed based on hematoxylin and eosin-stained tissues slices.

CaCo2 cells = assay: In vitro intestinal barrier function model (TEER, Example 2); assay type: cell-based, human; conditions: compared to vehicle control, after 4 h chemical challenge
Description: CaCo2 cell line is derived from human epithelial cells from the colon. They are frequently used to mimic intestinal barrier function to either look at permeability of drugs or to look at is functional resistance. For the present experiment, the CaCo2 cells were used to mimic the loss of its barrier function upon challenging the cells with [COMPOUND LEFT OUT] sulfonic acid [COMPOUND LEFT OUT] and investigate the effect of IMU-856 on this by measuring the electrical transepithelial resistance (TEER). […] For this CaCo2 cells, cultivated in a 6-well trans well plate on top of the membrane that has small pores that prevent the cells from going through but allow molecules and nutrients to pass. After 3 weeks, when the TEER is stable, the monolayer is challenged with 0.25% [COMPOUND LEFT OUT] stimulation for 4 h. Then, cells were washed and fresh medium with vehicle or IMU-856 was given. TEER was measured before and after challenge at different time points. For correct measurement, the shorter electrode is inserted into the transwell chamber (without touching the cells), and the longer electrode is inserted in the outer well.

SIRT6 [1] = biological target: T1, SIRT6 (Homo sapiens, UniProt Q8N6T7); assay: Inhibition of SIRT6 deacetylation of acetylated H3K56, in vitro cell free; assay type: biochemical
T1 sequence (Q8N6T7 whole entry): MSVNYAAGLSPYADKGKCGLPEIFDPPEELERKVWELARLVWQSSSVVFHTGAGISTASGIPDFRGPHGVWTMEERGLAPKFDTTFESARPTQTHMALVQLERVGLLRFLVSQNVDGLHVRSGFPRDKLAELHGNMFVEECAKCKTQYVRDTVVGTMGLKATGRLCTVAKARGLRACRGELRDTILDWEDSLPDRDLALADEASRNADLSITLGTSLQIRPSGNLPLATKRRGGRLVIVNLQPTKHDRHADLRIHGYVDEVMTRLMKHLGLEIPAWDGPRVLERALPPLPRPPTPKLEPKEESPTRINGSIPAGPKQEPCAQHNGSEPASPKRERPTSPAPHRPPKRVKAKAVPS

[2] = tested on: sirtuin 6 protein (SIRT6); assay: SIRT6 protein stabilization
[3] = tested on: patients with celiac disease; assay: Phase Ib safety in patients with celiac disease (Part C); assay type: in vivo, human
Experimental: (§1) In Part A, healthy subjects were randomised to single ascending doses of IMU-856 (10 mg to 160 mg) or placebo. In Part B healthy subjects were randomised to multiple once-daily doses of IMU-856 (40, 80, and 160 mg) or placebo for 14 days. Part C randomised patients with celiac disease who were on a gluten-free diet to multiple once-daily doses of IMU-856 (80 mg and 160 mg) or placebo for 28 days; a once-daily gluten challenge (6 g) was introduced on Day 14 and ended on Day 28. 71 healthy subjects were enrolled in Part A and B (N=19 placebo and N=52 IMU-856) and 43 patients with CelD in Part C (N=14 placebo; N=14 for 80 mg, and N=15 for 160 mg). In Parts A and B, treatment-emergent adverse events (TEAEs) occurred in 24 (73%) and 15 (79%) of subjects receiving any dose of IMU-856 compared to 6 (50%) and 5 (71%) with placebo, respectively. […] In Part C, the most common adverse events with any dose of IMU-856 by preferred term were headache (13 [45%]), nausea (9 [31%]), diarrhoea (8 [28%]), and abdominal distension (7 [24%]). […] In Part C, the mean change in villous height from baseline to Day 29 with 80 mg and 160 mg was −20.9±34.8 μm, and −22.5±51.1 μm, respectively, and −60.3±52.2 μm with placebo. […] Mean change in plasma citrulline increased with 80 mg and 160 mg from baseline to Day 14 (2.4±6.2 and 6.1±5.9 μmol/L, respectively) and from baseline to Day 29 (2.8±7.6 and 2.2±5.3 μmol/L, respectively), but not with placebo (−2.7±5.6 and −4.0±6.5 μmol/L). […] Mean increase in zinc levels from baseline to Day 29 with 80 mg and 160 mg were 0.3±1.4 and 0.9±2.1 μmol/L compared to a mean decrease in placebo (−0.9±2.1 μmol/L). Gluten-induced symptoms were also attenuated by IMU-856.
FIG. 1 illustrates the flow chart of part C in celiac disease (CelD) designed as proof-of-concept study with a gluten challenge trial. Part C was planned to include a well-controlled celiac disease patient population: The patients were 100% seronegative, indicating absence of ongoing substantial gluten exposure and was performed at sites in Australia and New Zealand. Part C was designed to assess safety, tolerability and pharmacokinetics of IMU-856 and measured also histologic changes, blood biomarkers, nutrient uptake and disease-related symptoms.

[4] = tested on: patients with celiac disease; assay: Mean corpuscular hemoglobin concentration, Part C; assay type: in vivo, human; conditions: Baseline to Day 29
Description: Since hemoglobin is the molecule to which oxygen attaches, MCHC is a measure of the average oxygen-carrying capacity of the red blood cells in circulating the body (https://www.verywellhealth.com/mean-cell-hemoglobin-concentration-4584155).

[5] = Clinical pharmacokinetics; assay type: in vivo, human
Experimental: as §1

SIRT6 [6] = biological target: T1, SIRT6; assay: SIRT6 deacetylation of acetylated H3K56 in a cellular system; assay type: cell-based
healthy subjects = assay: Phase I safety in healthy subjects (Parts A and B); assay type: in vivo, human
Experimental: as §1

[7] = Part A, any single dose (10 mg to 160 mg)
[8] = Part B, any dose (40, 80, 160 mg once daily, 14 days)

For `Cn1c(COc2cc(C(F)(F)F)ccn2)nnc1[C@H]1CC[C@H](c2cnn([C@H]3CC[C@H](N4CC5(CCO5)C4)CC3)c2)CC1` [IMU-856, 6-(trans-4-(4-(trans-4-(4-methyl-5-(((4-(trifluoromethyl)pyridin-2-yl)oxy)methyl)-4H-1,2,4-triazol-3-yl)cyclohexyl)-1H-pyrazol-1-yl)cyclohexyl)-1-oxa-6-azaspiro[3.3]heptane], the colon histology score (DSS-induced colitis) was “reduction in the histology score”, the diarrhea score (DSS-induced colitis) was “improvement of the diarrhea score which was similar or even better than the positive control” and the TEER (CaCo2 cells) was “higher TEER”. For the same compound, the TEER recovery rate (CaCo2 cells) was “higher recovery rate”, the “inhibition of deacetylase activity of SIRT6” value (SIRT6 [1]) was “selective inhibitor of the deacetylase activity” and the “deacetylation of H3K56” value (SIRT6 [1]; in vitro cell free system) was “prevents the deacetylation”. For the same compound, the “stabilization of sirtuin 6 protein” value [2] was “stabilizer”, the serious adverse events [3] was 1 and the “abdominal distension (number)” value ([3]; any dose) was 7. The “abdominal distension (percentage)” value ([3]; any dose) was 24%, the “diarrhoea (number)” value ([3]; any dose) was 8 and the “diarrhoea (percentage)” value ([3]; any dose) was 28%. The “headache (number)” value ([3]; any dose) was 13, the “headache (percentage)” value ([3]; any dose) was 45% and the “nausea (number)” value ([3]; any dose) was 9. For the same compound, the “nausea (percentage)” value ([3]; any dose) was 31%, the “mean corpuscular hemoglobin concentration (MCHC)” value [4] was “higher mean corpuscular hemoglobin concentration; also recorded: improvement in red blood cell function” and the accumulation factor ([5]; daily dosing) was “low accumulation factor”. The “steady-state plasma concentrations, time to achievement” value ([5]; daily dosing) was “within the first week”, the half-life ([5]; human, plasma, steady-state) was 17.4 to 21.5 h and the Tmax ([5]; human, plasma, steady-state, post-dose) was 2 to 3 h. For the same compound, the steady-state trough levels ([5]; over the 14-day treatment period) was “stable steady-state trough levels”, the AUC dose dependence ([5]; steady-state) was “dose proportional increases” and the Cmax dose dependence ([5]; steady-state) was “dose proportional increases”. For the same compound, the “deacetylation of H3K56” value (SIRT6 [6]) was “prevents the deacetylation”, the “subjects with TEAEs (number)” value (healthy subjects; [7]) was 24 and the “subjects with TEAEs (percentage)” value (healthy subjects; [7]) was 73%. The serious adverse events (healthy subjects; Part B) was 1, the “subjects with TEAEs (number)” value (healthy subjects; [8]) was 15 and the “subjects with TEAEs (percentage)” value (healthy subjects; [8]) was 79%. The “severity of TEAEs” value (healthy subjects; Parts A and B) was “mild in severity”.
